Assay results: ChEMBL document CHEMBL1201862, “PubChem BioAssay data set” (2004)
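48-hour exposure; five concentrations; linearly interpolated endpoints. GI50 is the concentration that inhibits growth by half.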 Calls of active or inactive are those of the source. Cut-off read from the data, not from the text of the source: active = GI50 up to about 1.1 µM and inactive = higher.

Experiments:
Experiment in all cases: growth of human tumour cells (NCI), 48 h
M14 = system: M14
COLO 205 = system: COLO 205
MDA-N = system: MDA-N
786-0 = system: 786-0
NCI-H226 = system: NCI-H226
MDA-MB-231 = system: MDA-MB-231
OVCAR-8 = system: OVCAR-8
ACHN = system: ACHN
KM12 = system: KM12
EKVX = system: EKVX
A498 = system: A498
U-251 = system: U-251
TK-10 = system: TK-10
NCI-H460 = system: NCI-H460
T47D = system: T47D
SF-539 = system: SF-539
Malme-3M = system: Malme-3M
OVCAR-3 = system: OVCAR-3
HOP-62 = system: HOP-62
A549 = system: A549
MDA-MB-435 = system: MDA-MB-435
HT-29 = system: HT-29
SK-MEL-28 = system: SK-MEL-28
HCT-116 = system: HCT-116
RPMI-8226 = system: RPMI-8226
OVCAR-4 = system: OVCAR-4
SK-OV-3 = system: SK-OV-3
UACC-257 = system: UACC-257
NCI-H522 = system: NCI-H522
HCT-15 = system: HCT-15
SK-MEL-5 = system: SK-MEL-5
IGROV-1 = system: IGROV-1
MOLT-4 = system: MOLT-4
NCI-H23 = system: NCI-H23
CAKI-1 = system: CAKI-1
DU-145 = system: DU-145
SF-268 = system: SF-268
SNB-75 = system: SNB-75
HOP-92 = system: HOP-92
CCRF-CEM = system: CCRF-CEM
OVCAR-5 = system: OVCAR-5
NCI/ADR-RES = system: NCI/ADR-RES
SW-620 = system: SW-620
SNB-19 = system: SNB-19
LOX IMVI = system: LOX IMVI
SN12C = system: SN12C
BT-549 = system: BT-549
RXF 393 = system: RXF 393
UO-31 = system: UO-31
SF-295 = system: SF-295
K562 = system: K562
MCF7 = system: MCF7
HL-60 = system: HL-60
SK-MEL-2 = system: SK-MEL-2
PC-3 = system: PC-3
UACC-62 = system: UACC-62

Measured: GI50

N#CC(c1nc2ccccc2s1)c1ncnc(Cl)c1[N+](=O)[O-] (configuration not stated)
inactive: M14 17.5 µM | COLO 205 15.5 µM | MDA-N 18.2 µM | 786-0 20.1 µM | NCI-H226 20.2 µM | MDA-MB-231 30.8 µM | OVCAR-8 18.5 µM | ACHN 37.6 µM | KM12 32.5 µM | EKVX 23.2 µM | A498 > 100 µM | U-251 32.7 µM | TK-10 34.3 µM | NCI-H460 20.3 µM | T47D 29.1 µM | SF-539 30.3 µM | Malme-3M 19.4 µM | OVCAR-3 20.1 µM | HOP-62 28.8 µM | A549 36.3 µM | MDA-MB-435 29.2 µM | HT-29 17.4 µM | SK-MEL-28 19.9 µM | HCT-116 12.6 µM | RPMI-8226 28.1 µM | OVCAR-4 27.7 µM | SK-OV-3 37.8 µM | UACC-257 20.6 µM | NCI-H522 18.9 µM | SK-MEL-5 15.8 µM | IGROV-1 14.6 µM | MOLT-4 31.8 µM | NCI-H23 16.5 µM | CAKI-1 25.2 µM | DU-145 34.1 µM | SF-268 17.5 µM | SNB-75 22.9 µM | HOP-92 17.3 µM | OVCAR-5 24.3 µM | NCI/ADR-RES 17.8 µM | SW-620 19.3 µM | SNB-19 32.1 µM | LOX IMVI 17.3 µM | SN12C 18.2 µM | BT-549 22.9 µM | RXF 393 25.5 µM | UO-31 27.9 µM | SF-295 > 100 µM
17.9 µM: HCT-15
active: CCRF-CEM 0.361 µM

C(CCCCc1nnc(N2CCOCC2)o1)CCCc1nnc(N2CCOCC2)o1
inactive: M14 > 100 µM | COLO 205 > 100 µM | K562 > 100 µM | MDA-N > 100 µM | 786-0 > 100 µM | NCI-H226 > 100 µM | MDA-MB-231 > 100 µM | OVCAR-8 > 100 µM | ACHN > 100 µM | KM12 > 100 µM | EKVX > 100 µM | A498 > 100 µM | U-251 > 100 µM | TK-10 > 100 µM | MCF7 > 100 µM | NCI-H460 > 100 µM | SF-539 > 100 µM | HL-60 > 100 µM | OVCAR-3 > 100 µM | HOP-62 > 100 µM | A549 > 100 µM | MDA-MB-435 > 100 µM | HT-29 > 100 µM | SK-MEL-28 > 100 µM | HCT-116 > 100 µM | OVCAR-4 > 100 µM | SK-OV-3 > 100 µM | UACC-257 > 100 µM | SK-MEL-5 > 100 µM | IGROV-1 > 100 µM | SK-MEL-2 > 100 µM | MOLT-4 > 100 µM | NCI-H23 > 100 µM | CAKI-1 > 100 µM | DU-145 > 100 µM | SNB-75 > 100 µM | HOP-92 > 100 µM | CCRF-CEM > 100 µM | OVCAR-5 > 100 µM | NCI/ADR-RES > 100 µM | SW-620 > 100 µM | SNB-19 > 100 µM | LOX IMVI > 100 µM | SN12C > 100 µM | PC-3 > 100 µM | BT-549 > 100 µM | RXF 393 > 100 µM | UO-31 > 100 µM | SF-295 > 100 µM
> 100 µM: HCT-15

CN(C)C(=S)N/N=C\C=N/NC(=S)N(C)C
0.0843 µM: HCT-15
inactive: K562 23.9 µM | MDA-N 3.29 µM | MDA-MB-231 > 100 µM | TK-10 2.53 µM | SF-539 6.97 µM | UACC-257 2.64 µM | NCI-H23 1.63 µM | SNB-75 1.75 µM | HOP-92 1.65 µM | OVCAR-5 31.8 µM | BT-549 > 100 µM
active: M14 0.139 µM | COLO 205 0.246 µM | 786-0 0.209 µM | NCI-H226 0.515 µM | OVCAR-8 0.175 µM | ACHN 0.238 µM | KM12 0.525 µM | EKVX 0.479 µM | A498 0.643 µM | U-251 0.0614 µM | MCF7 0.329 µM | NCI-H460 0.0231 µM | T47D 0.384 µM | Malme-3M 0.182 µM | OVCAR-3 0.0295 µM | HOP-62 0.129 µM | A549 0.0918 µM | MDA-MB-435 0.953 µM | HT-29 0.0625 µM | UACC-62 0.802 µM | SK-MEL-28 0.552 µM | RPMI-8226 0.871 µM | OVCAR-4 0.148 µM | SK-OV-3 0.344 µM | NCI-H522 0.22 µM | SK-MEL-5 0.349 µM | IGROV-1 0.47 µM | SK-MEL-2 0.361 µM | CAKI-1 0.447 µM | DU-145 0.155 µM | SF-268 0.112 µM | NCI/ADR-RES 0.189 µM | SW-620 0.0569 µM | SNB-19 0.731 µM | LOX IMVI 0.321 µM | SN12C 0.286 µM | PC-3 0.182 µM | RXF 393 0.277 µM | UO-31 0.237 µM | SF-295 0.158 µM
